The values that follow are results of earlier work, collected in US20250161397A1, “PLANT BASED FORMULATION FOR FAST PAIN RELIEF AND PREPARATION METHOD” (ARJUNA NATURAL PRIVATE LIMITED, priority 2022, published 2025).

Data set [1] deals with T1, 5-LOX (Homo sapiens, UniProt P09917).
T1 sequence (P09917 1-674): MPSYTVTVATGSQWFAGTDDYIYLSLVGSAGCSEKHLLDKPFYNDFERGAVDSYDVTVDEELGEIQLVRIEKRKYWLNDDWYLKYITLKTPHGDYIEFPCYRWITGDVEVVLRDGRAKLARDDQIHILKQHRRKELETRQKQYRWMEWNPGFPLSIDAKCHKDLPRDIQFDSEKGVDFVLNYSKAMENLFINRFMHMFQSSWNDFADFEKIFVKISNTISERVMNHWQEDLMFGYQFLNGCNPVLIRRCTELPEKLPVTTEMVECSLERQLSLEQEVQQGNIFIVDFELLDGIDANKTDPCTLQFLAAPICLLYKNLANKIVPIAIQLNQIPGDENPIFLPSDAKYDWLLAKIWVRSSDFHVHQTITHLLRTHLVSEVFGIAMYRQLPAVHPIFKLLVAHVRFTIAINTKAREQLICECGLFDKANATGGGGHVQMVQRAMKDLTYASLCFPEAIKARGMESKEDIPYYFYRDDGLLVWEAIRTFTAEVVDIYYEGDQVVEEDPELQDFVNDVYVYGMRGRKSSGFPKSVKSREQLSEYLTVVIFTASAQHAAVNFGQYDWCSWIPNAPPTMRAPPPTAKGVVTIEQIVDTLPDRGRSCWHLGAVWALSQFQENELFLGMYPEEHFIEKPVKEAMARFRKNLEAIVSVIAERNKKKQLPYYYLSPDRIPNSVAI
The following applies: literature.

For data set [2], the target named is COX-1 (Homo sapiens, UniProt P23219). The following applies: Siemoneit 2008.
Sequence of COX-1 (Homo sapiens, UniProt P23219) (P23219 24-599): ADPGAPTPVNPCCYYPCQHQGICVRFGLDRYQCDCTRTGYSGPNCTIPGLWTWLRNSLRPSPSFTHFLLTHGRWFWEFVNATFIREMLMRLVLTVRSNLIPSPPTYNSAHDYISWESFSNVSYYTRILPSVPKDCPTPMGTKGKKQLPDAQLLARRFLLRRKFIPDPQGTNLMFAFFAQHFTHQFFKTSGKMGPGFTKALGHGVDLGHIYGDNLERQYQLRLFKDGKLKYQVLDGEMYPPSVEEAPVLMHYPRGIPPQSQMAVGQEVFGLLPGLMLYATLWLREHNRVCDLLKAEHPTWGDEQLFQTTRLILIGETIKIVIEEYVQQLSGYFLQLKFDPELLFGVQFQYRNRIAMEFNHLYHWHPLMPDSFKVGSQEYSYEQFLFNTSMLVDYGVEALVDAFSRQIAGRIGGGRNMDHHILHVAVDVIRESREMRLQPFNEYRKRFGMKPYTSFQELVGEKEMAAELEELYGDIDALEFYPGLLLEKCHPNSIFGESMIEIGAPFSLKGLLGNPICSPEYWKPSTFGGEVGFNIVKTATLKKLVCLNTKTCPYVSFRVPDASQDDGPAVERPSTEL
Data set [3] deals with T2, COX-2 (Homo sapiens, UniProt P35354).
T2 sequence (P35354 18-604): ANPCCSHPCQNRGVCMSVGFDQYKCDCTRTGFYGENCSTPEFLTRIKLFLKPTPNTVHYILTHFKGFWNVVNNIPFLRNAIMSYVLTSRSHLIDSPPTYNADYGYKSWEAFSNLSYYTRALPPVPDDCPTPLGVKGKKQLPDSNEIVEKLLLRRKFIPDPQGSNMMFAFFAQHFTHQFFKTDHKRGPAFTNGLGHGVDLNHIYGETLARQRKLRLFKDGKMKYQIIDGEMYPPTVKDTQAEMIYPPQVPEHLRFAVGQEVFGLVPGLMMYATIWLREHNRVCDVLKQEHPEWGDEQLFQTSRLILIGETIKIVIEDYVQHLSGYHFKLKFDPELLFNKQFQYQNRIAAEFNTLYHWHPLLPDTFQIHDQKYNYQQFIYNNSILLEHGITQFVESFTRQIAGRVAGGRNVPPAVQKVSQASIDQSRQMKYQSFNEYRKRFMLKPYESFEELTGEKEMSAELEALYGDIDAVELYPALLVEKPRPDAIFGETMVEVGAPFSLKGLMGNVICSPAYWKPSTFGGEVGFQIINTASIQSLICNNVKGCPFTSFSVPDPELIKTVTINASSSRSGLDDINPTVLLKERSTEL
The following applies: Siemoneit 2008.

The subject of data set [4] is COX-1. As to conditions: Goel 2001.
Data set [5] addresses T3, 12/15 LOX (Rattus norvegicus, UniProt Q02759).
T3 construct: from tissue; host or cells: rat lung cytosolic fraction
T3 sequence (Q02759 1-663): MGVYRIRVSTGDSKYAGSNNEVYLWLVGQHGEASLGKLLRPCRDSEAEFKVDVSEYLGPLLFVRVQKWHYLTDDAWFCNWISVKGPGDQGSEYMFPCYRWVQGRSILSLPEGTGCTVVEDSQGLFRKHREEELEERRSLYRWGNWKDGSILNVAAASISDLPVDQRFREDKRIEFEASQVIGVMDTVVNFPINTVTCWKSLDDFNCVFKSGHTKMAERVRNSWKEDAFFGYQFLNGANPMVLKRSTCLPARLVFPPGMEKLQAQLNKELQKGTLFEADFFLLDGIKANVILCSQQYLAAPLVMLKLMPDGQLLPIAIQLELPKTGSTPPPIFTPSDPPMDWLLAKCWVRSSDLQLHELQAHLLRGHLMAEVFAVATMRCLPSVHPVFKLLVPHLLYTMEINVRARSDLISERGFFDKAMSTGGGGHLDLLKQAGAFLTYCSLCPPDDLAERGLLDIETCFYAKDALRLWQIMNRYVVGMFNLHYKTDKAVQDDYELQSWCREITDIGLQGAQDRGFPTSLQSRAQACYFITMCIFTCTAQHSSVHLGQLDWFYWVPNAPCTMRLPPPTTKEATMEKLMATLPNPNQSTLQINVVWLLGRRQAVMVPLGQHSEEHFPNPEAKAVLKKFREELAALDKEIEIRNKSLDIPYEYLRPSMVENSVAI
As to conditions: in vitro, rat lung cytosolic fraction; Bezáková 2014.

In data set [6] the test system is COX-2. As to conditions: HT-29 human colon cancer cells; Goel 2001.

Turning to `CC(=O)O[C@@H]1CC[C@@]2(C)[C@@H](CC[C@]3(C)[C@@H]2C(=O)C=C2[C@@H]4[C@@H](C)[C@H](C)CC[C@]4(C)CC[C@]23C)[C@@]1(C)C(=O)O` [AKBA, acetyl-11-keto-β-boswellic acid], in data set [1], the “inhibition of 5-LOX” value is recorded as “good inhibition of 5-LOX”. The “inhibition of COX-1” value in data set [2] is “reversible inhibition of COX-1”. For the same compound, the “inhibition of COX-2” value in data set [3] is “less efficiently inhibited by AKBA as compared to COX-1”.
As for `COc1cc(/C=C/C(=O)CC(=O)/C=C/c2ccc(O)c(OC)c2)ccc1O` [Curcumin, curcumin], the “effect on mRNA and protein expression of COX-1” value in data set [4] is “not COX-1”. Moreover, the “inhibition of 12/15 LOX” value in data set [5] is reported as “competitive inhibitor of 12/15 LOX”. In data set [1], the “inhibition of 5-LOX” value was “bind to the active site of 5-LOX and inhibit its activity”. Further, in data set [6], the “effect on mRNA and protein expression of COX-2” value was “inhibit the mRNA and protein expression of COX-2”.
